These are literature values, as cited in patent publication US20190142979A1, “CONTRAST MEDIUM AND METHODS INVOLVED IN PREPARATION FOR THE DETERMINATION OF PATENCY OF CONDUITS” (priority 2016, published 2019).

As for `CCN(CC)CC(=O)Nc1c(C)cccc1C` [Lidocaine], the “alteration of fertility levels” value (post administration) is recorded as “not reported”. Also, the safety entry (upon injection into uterine cavity or into peritoneal cavity) is given as “highly safe”.
